Test results as given in patent publication US5952354A, “Tris carbamic acid esters: inhibitors of cholesterol absorption” (priority 1993, dated 1999).
Read-outs that look alike come from different tables or passages of the source.

Assays:
[1] = target: T1, cholesterol esterase (EC 3.1.1.13) (CEH) (Bos taurus, UniProt P30122); test: inhibition of cholesteryl ester formation by cholesterol esterase (CEH), procedure of Field; type: biochemical, bovine
T1 construct: purchased Sigma Company, St. Louis, Mo., U.S.A. C-1892; host or cells: bovine pancreas
T1 sequence (P30122 19-597): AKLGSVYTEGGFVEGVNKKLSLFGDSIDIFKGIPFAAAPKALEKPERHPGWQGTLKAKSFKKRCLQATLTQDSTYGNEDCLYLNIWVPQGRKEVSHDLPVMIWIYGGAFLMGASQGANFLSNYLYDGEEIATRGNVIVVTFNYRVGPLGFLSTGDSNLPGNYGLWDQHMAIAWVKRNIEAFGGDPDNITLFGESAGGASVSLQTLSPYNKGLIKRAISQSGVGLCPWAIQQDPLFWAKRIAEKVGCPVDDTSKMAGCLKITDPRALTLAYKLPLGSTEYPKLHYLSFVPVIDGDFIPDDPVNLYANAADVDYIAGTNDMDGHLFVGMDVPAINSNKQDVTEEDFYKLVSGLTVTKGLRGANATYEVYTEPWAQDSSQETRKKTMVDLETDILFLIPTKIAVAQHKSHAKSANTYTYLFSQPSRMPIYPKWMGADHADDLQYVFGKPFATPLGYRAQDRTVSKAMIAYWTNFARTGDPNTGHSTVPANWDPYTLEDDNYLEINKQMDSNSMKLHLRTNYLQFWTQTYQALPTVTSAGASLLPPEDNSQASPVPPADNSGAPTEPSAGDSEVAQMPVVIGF
Procedure: 2. The ability of the compounds of this invention to inhibit the formation of cholesteryl esters and thereby interfere with and prevent assimilation of cholesterol into the lymphatic system and ultimately the blood stream was established by incubating the compounds at 37C. with a mixture of cholesterol and oleic acid in the presence of buffered cholesterol esterase [(EC 3.1.1.13) Sigma Company, St. Louis, Mo., U.S.A., No. C-1892, from bovine pancreas] and measuring the amount of ester formed, according to the procedure of Field. J. of Lipid Research, 25, 389 (1984).

[2] = tested on: acyl-coenzyme A: cholesterol acyltransferase (ACAT); test: inhibition of acyl-coenzyme A: cholesterol acyltransferase (intracellular cholesterol esterification, procedure of Ross et al.); type: cell-based; details: for IC50: read-out: ACAT IC50
Procedure: 1. The ability of the compounds of this invention to inhibit acyl-coenzyme A: cholesterol acyltransferase was established by initially showing that they inhibited intracellular cholesterol esterification by subjecting them to the standard experimental test procedure of Ross et al., J. Biol. Chem. 259, 814 (1984). The results are reported in the following table, where available, in terms of the percent inhibition at 25 μM and the IC50 (μM).

[3] = tested on: absorption of 14C-cholesterol; test: in vivo cholesterol absorption studies in normal rats ([4-14C] cholesterol); details: Rattus norvegicus, read-out: Effect on Absorption of 14C-chol. - 6 hr - normal, % Decrease; for inhibition in vivo at 3 mg/kg: 3 mg/kg oral; for inhibition in vivo at 10 mg/kg: 10 mg/kg oral
Procedure: The in vivo cholesterol absorption studies were conducted in normal rats by oral administration of the compound being tested in propylene glycol and olive oil followed by oral administration of [4-^14 C] cholesterol in propylene glycol and olive oil, otherwise following the procedure of Cayen et al., J. Lipid Res. 20 162 (1979). The serum radioactivity was measured at six hours after dosing. The results of this study are reported in the following table as percent decrease compared to control at the dose stated.

[4] = 37C, cholesterol and oleic acid, buffered cholesterol esterase from bovine pancreas, read-out: CEH IC50
[5] = normal rats, serum radioactivity at 6 hr, vs control
[6] = 20 mg/kg oral, normal rats, serum radioactivity at 6 hr, vs control

| Structure (SMILES) | IC50 [1, 4] [µM] | ACAT % inhibition at 25 μM [2] [%] | IC50 [2] [µM] | inhibition in vivo at 3 mg/kg [3, 5] [%] | inhibition in vivo at 20 mg/kg [3, 6] [%] | inhibition in vivo at 10 mg/kg [3, 5] [%] | IC50 [1] [µM] | inhibition in vivo at 20 mg/kg ([3]; po, 6 h) [%] |
| --- | --- | --- | --- | --- | --- | --- | --- | --- |
| CCCCCCNC(=O)OCCCCCCNC(=O)OC1CCN(C(=O)Oc2ccc(Oc3ccccc3)cc2)CC1 [Example 6, 4-[6-(Hexylcarbamoyloxy)-hexylcarbamoyloxy]-piperidine-1-carboxylic acid 4-phenoxyphenyl ester] | 0.42 | 97 | 1.78 | 59 |  |  |  |  |
| CCCCCCN(CCCCCC)C(=O)OCCCCCCNC(=O)OC1CCN(C(=O)Oc2ccc(Oc3ccccc3)cc2)CC1 [Example 7] | 0.67 | 76 | 6.41 |  | 42 |  |  |  |
| O=C(NCCCCCCOC(=O)N1CCCCC1)OC1CCN(C(=O)Oc2ccc(Oc3ccccc3)cc2)CC1 [Example 8, 4-[6-(Piperidine-1-carbonyloxy)-hexylcarbamoyloxy]-piperidine-1-carboxylic acid 4-phenoxyphenyl ester] | 0.54 | 98 | 2.34 | 65 |  |  |  |  |
| O=C(NCCCCCCOC(=O)N(Cc1ccccc1)Cc1ccccc1)OC1CCN(C(=O)Oc2ccc(Oc3ccccc3)cc2)CC1 [Example 9] | 0.08 | 95 | 1.59 |  |  | 49 |  |  |
| CCCCCCNC(=O)OCCCCCCCCCCCCNC(=O)OC1CCN(C(=O)Oc2ccc(Oc3ccccc3)cc2)CC1 [Example 10, 4-[12-(Hexylcarbamoyloxy)-dodecylcarbamoyloxy]-piperidine-1-carboxylic acid 4-phenxoyphenyl ester] |  | 83 | 5 |  |  |  | 0.62 | 22 |
| CCCCCCCN(Cc1ccc(CC(C)(C)C)cc1)C(=O)OCCCCCCNC(=O)OC1CCN(C(=O)Oc2ccc(Oc3ccccc3)cc2)CC1 [Example 11, 4-{6-[(4-(2,2-Dimethyl-propyl)-benzyl)-heptyl-carbamoyloxy]-hexyl-carbamoyloxy}-piperidine-1-carboxylic acid 4-phenoxyphenyl ester] | 28.2 | 24 |  |  | 6 |  |  |  |
| O=C(NCCCCCCOC(=O)N1CCC2(CCCC2)CC1)OC1CCN(C(=O)Oc2ccc(Oc3ccccc3)cc2)CC1 [Example 12, 8-Aza-spiro[4,5]decane-8-carboxylic acid 6-{[1-(4-phenoxy-phenoxycarbonyl)-piperidine-4-oxycarbonyl]amino}-hexyl ester] | 0.31 | 83 | 1.72 |  |  | 76 |  |  |
| CCCCCCCC/C=C\CCCCCCCCNC(=O)OCCCCCCNC(=O)OC1CCN(C(=O)Oc2ccc(Oc3ccccc3)cc2)CC1 [Example 13] | 15.5 | 47 |  |  | 20 |  |  |  |
| CCCCCCCC/C=C\CCCCCCCCNC(=O)OCCCCCCCCCCCCNC(=O)OC1CCN(C(=O)Oc2ccc(Oc3ccccc3)cc2)CC1 [Example 14, (Z)-4-[12-(Octadec-9-enylcarbamoyloxy)-dodecylcarbamoyloxy]-piperidine-1-carboxylic acid 4-phenoxyphenyl ester] | > 100 | 41 |  |  | 2 |  |  |  |
| CCCCCCNC(=O)OCCCNC(=O)OC1CCN(C(=O)Oc2ccc(Oc3ccccc3)cc2)CC1 [Example 16, 4-[3-(Hexylcarbamoyloxy)-propylcarbamoyloxy]-piperidine-1-carboxylic acid 4-phenoxyphenyl ester] | 0.73 |  |  |  |  | 68 |  |  |
| CCCCCCCCCNC(=O)OCCCNC(=O)OC1CCN(C(=O)Oc2ccc(Oc3ccccc3)cc2)CC1 [Example 18, 4-[3-(Nonylcarbamoyloxy)-propylcarbamoyloxy]-piperidine-1-carboxylic acid 4-phenoxyphenyl ester] | 0.51 |  |  |  |  | 50 |  |  |
